Laboratory results reported in the supplement of paper PMC4862054.

Assays:
Conditions in all cases: incubation time: 72 h
CAL-51 [1] = experiment: drug sensitivity score (DSS), CellTiter-Glo (DSS (AUC-based score)); higher = stronger drug effect (viability inhibition or cytotoxicity); extreme values may be limits of the assay
In short: (§1)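 A drug sensitivity score was derived from the area under each fitted dose-response curve. Breast cancer cells (20 µl suspension) were seeded onto compound in 384-well plates, using 5 concentrations 10-fold apart over a compound-specific 10,000-fold range, and incubated 72 h. Readouts were CellTox Green fluorescence and then CellTiter-Glo luminescence, with every plate normalised to 0.1 % DMSO and a positive kill control.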

CAL-120 = experiment: as above
In short: as §1

HCC1143 = experiment: as above
In short: as §1

MDA-MB-436 [2] = experiment: as above
In short: as §1

DU-4475 = experiment: as above
In short: as §1

MCF-10A = experiment: as above
In short: as §1

MDA-MB-231 [3] = experiment: as above
In short: as §1

HCC1599 = experiment: as above
In short: as §1

SK-BR-3 = experiment: as above
In short: as §1

MDA-MB-468 [4] = experiment: as above
In short: as §1

BT-474 = experiment: as above
In short: as §1

Hs578T [5] = experiment: as above
In short: as §1

HCC1937 [6] = experiment: as above
In short: as §1

MFM-223 [7] = experiment: as above
In short: as §1

CAL-148 [8] = experiment: as above
In short: as §1

BT-549 = experiment: as above
In short: as §1

MDA-MB-453 [9] = experiment: as above
In short: as §1

CAL-51 [10] = experiment: drug sensitivity score (DSS), CellTox Green (DSS (AUC-based score)); higher = stronger drug effect (viability inhibition or cytotoxicity); extreme values may be limits of the assay
In short: as §1

HDQ-P1 = experiment: as above
In short: as §1

MDA-MB-436 [11] = experiment: as above
In short: as §1

MDA-MB-231 [12] = experiment: as above
In short: as §1

MDA-MB-468 [13] = experiment: as above
In short: as §1

Hs578T [14] = experiment: as above
In short: as §1

HCC1937 [15] = experiment: as above
In short: as §1

MFM-223 [16] = experiment: as above
In short: as §1

CAL-148 [17] = experiment: as above
In short: as §1

MDA-MB-453 [18] = experiment: as above
In short: as §1

| SMILES | drug sensitivity score (CAL-51 [1]) | drug sensitivity score (CAL-120) | drug sensitivity score (HCC1143) | drug sensitivity score (MDA-MB-436 [2]) | drug sensitivity score (DU-4475) | drug sensitivity score (MCF-10A) | drug sensitivity score (MDA-MB-231 [3]) | drug sensitivity score (HCC1599) | drug sensitivity score (SK-BR-3) | drug sensitivity score (MDA-MB-468 [4]) | drug sensitivity score (BT-474) | drug sensitivity score (Hs578T [5]) | drug sensitivity score (HCC1937 [6]) | drug sensitivity score (MFM-223 [7]) | drug sensitivity score (CAL-148 [8]) | drug sensitivity score (BT-549) | drug sensitivity score (MDA-MB-453 [9]) | drug sensitivity score (CAL-51 [10]) | drug sensitivity score (HDQ-P1) | drug sensitivity score (MDA-MB-436 [11]) | drug sensitivity score (MDA-MB-231 [12]) | drug sensitivity score (MDA-MB-468 [13]) | drug sensitivity score (Hs578T [14]) | drug sensitivity score (HCC1937 [15]) | drug sensitivity score (MFM-223 [16]) | drug sensitivity score (CAL-148 [17]) | drug sensitivity score (MDA-MB-453 [18]) |
| --- | --- | --- | --- | --- | --- | --- | --- | --- | --- | --- | --- | --- | --- | --- | --- | --- | --- | --- | --- | --- | --- | --- | --- | --- | --- | --- | --- |
| Cc1c(Cn2c(C)nc3c(C(=O)O)cc(N4CCOCC4)cc32)cccc1C(F)(F)F | 12.3 | 0 | 0 | 0.153 | 0 | 0 | 0 | 0 | 0 | 3.65 | 0 | 0 | 0 | 0 | 0 | 3.9 | 0 | 0 | 0 | 0 | 0 | 0 | 0 | 0 | 0 | 0 | 0 |
| c1cc(CN2CCCNCCNCCCNCC2)ccc1CN1CCCNCCNCCCNCC1 [Plerixafor] | 0 | 0 | 0 | 0 | 0 | 0 | 0 | 0 | 0 | 0 | 0 | 0 | 0 | 0 | 0 | 0 | 0 | 0 | 0 | 0 | 0 | 4.79 | 0 | 0 | 0 | 0 | 0 |
| CCN(CC)CCNC(=O)c1c(C)[nH]c(/C=C2\C(=O)Nc3ccc(F)cc32)c1C [Sunitinib] | 0 | 0 | 0 | 0 | 0 | 0 | 0 | 0 | 0 | 0 | 0 | 0 | 0 | 0 | 0 | 0 | 0 | 0 | 0 | 0 | 0 | 0 | 2.45 | 0 | 0 | 0 | 0 |
| Cc1ccc(Nc2nccc(N(C)c3ccc4c(C)n(C)nc4c3)n2)cc1S(N)(=O)=O [Pazopanib] | 0 | 0.234 | 0 | 0 | 0 | 0 | 0 | 0 | 0 | 0 | 0 | 0.162 | 0 | 6.2 | 0 | 2.29 | 0 | 0 | 0 | 0 | 0 | 0 | 0 | 0 | 0 | 0 | 0 |
| CO[C@@H](C(=O)N1Cc2[nH]nc(NC(=O)c3ccc(N4CCN(C)CC4)cc3)c2C1)c1ccccc1 [Danusertib] | 9.2 | 6.46 | 5.41 | 4.68 | 5.98 | 12 | 5.32 | 0 | 0 | 18.3 | 5.14 | 3.96 | 0 | 14.3 | 3.57 | 10.7 | 0 | 13.8 | 0.964 | 3.88 | 0 | 13.7 | 15.2 | 1.64 | 0 | 0 | 0 |
| CC(=O)OC[C@H]1O[C@@H]([S-])[C@H](OC(C)=O)[C@@H](OC(C)=O)[C@@H]1OC(C)=O.CCP(CC)CC.[Au+] [Auranofin] | 11.7 | 0.998 | 5.15 | 5.88 | 1.74 | 1.42 | 4.38 | 1.36 | 1.76 | 14.9 | 1.22 | 3.87 | 7.45 | 2.71 | 1.24 | 9.2 | 6.93 | 3.46 | 6.27 | 0 | 3.16 | 9.05 | 0 | 4.79 | 1.22 | 0.881 | 1.98 |
| CC/C(=C(\c1ccc(O)cc1)c1ccc(OCCN(C)C)cc1)c1ccccc1 [4-hydroxytamoxifen] | 0 | 1.84 | 0 | 1.6 | 0 | 0 | 2.63 | 0 | 1.4 | 4.87 | 0 | 0 | 3.45 | 1.9 | 0 | 2.89 | 1.86 | 0 | 0 | 0.732 | 4.16 | 21 |  | 8.17 | 0 | 0 | 1 |
| O=C(Nc1c[nH]nc1-c1nc2ccc(CN3CCOCC3)cc2[nH]1)NC1CC1 [AT9283] | 7.83 | 5.15 | 2.84 | 0 | 1.31 | 5.49 | 6.11 | 0 | 1.96 | 13.4 | 5.15 | 4.11 | 0 | 1.08 | 0 | 4.94 | 0 | 14 | 0 | 0 | 14.3 | 13.2 | 0.649 | 0 | 0 | 0 | 0 |
| Cn1cc(CNCC2CCN(c3ncc(C(=O)NO)cn3)CC2)c2ccccc21 [Quisinostat] | 12.1 | 12.3 | 16.7 | 9.76 | 16.2 | 11.5 | 13.2 | 12.5 | 19.3 | 13.6 | 13.7 | 13.7 | 8.41 | 9.28 | 18.3 | 11.9 | 23.3 | 10.9 | 1.56 | 0 | 13.6 | 18.9 | 13.2 | 0 | 4.71 | 14.8 | 0.347 |
| CCC/C=C/C=C/C(=O)O[C@H]1/C(=C/C(=O)OC)C[C@H]2C[C@H]([C@@H](C)O)OC(=O)C[C@H](O)C[C@@H]3C[C@H](OC(C)=O)C(C)(C)[C@](O)(C[C@@H]4C/C(=C/C(=O)OC)C[C@H](/C=C/C(C)(C)[C@]1(O)O2)O4)O3 [Bryostatin 1] | 6.93 | 0 | 0 | 0 | 0 | 0 | 0 | 0 | 10.8 | 0 | 1.75 | 4.68 | 0 | 0 | 0 | 0.294 | 0 | 0 | 10.8 |  | 0 | 0 | 0 | 4.81 | 0 | 0 | 0 |
| C[C@]12C=CC(=O)C=C1CC[C@@H]1[C@@H]2[C@@H](O)C[C@@]2(C)[C@H]1CC[C@]2(O)C(=O)CO [Prednisolone] | 0 | 5.1 | 0 | 0 | 0 | 0 | 0 | 0 | 0 | 0 | 0 | 0 | 0 | 0 | 0 | 0 | 0 | 0 | 0.861 |  | 0 | 0 | 0 | 0 | 0 | 0 | 0 |
| CC(C)N(CCCNC(=O)Nc1ccc(C(C)(C)C)cc1)C[C@H]1O[C@@H](n2cc(Br)c3c(N)ncnc32)[C@H](O)[C@@H]1O [SGC0946] | 0 | 0 | 0 | 0 | 0 | 0 | 0 | 0 | 0 | 2.46 | 0 | 0 | 0 | 0 | 0 | 0 | 0 | 0 | 0 | 0 | 0 | 0 |  | 0 | 0 | 0 | 0 |
| O=S(=O)(c1cccc2cnccc12)N1CCCNCC1 [Fasudil] | 0 | 0 | 0 | 0 | 0.0897 | 0 | 0 | 0 | 0 | 0 | 0 | 0.0914 | 0 | 0 | 0 | 1.25 | 1.2 | 0 |  | 0 | 2.62 |  | 0 | 0 | 0 | 0 | 0 |
